# Results published in patent US20120083473A1, “TREATMENT OF CONDITIONS BY TOLL-LIKE RECEPTOR MODULATORS” (priority 2010, published 2012).
# Tests used:
# [1] = PK analysis after i.v. administration in mice; assay type: in vivo
# [2] = test system: Bleomycin-induced fibrosis in C57BU6 mice; test: Bleomycin-induced lung fibrosis in mice; assay type: in vivo; conditions: 500 nmol/animal s.c. daily; day 7 and day 21; ELISA
# Description: The efficacy of Compound 2 on mouse models of idiopathic lung fibrosis was studied as follows. Lung fibrosis was induced in 6-8 week old female C57BU6 mice. 0.8 U/kg of bleomycin (Hospira, Inc., Lake Forest, Ill.) was administered by intratracheal (i.t.) instillation on day 0. Bleomycin treated C57BU6 mice were divided into four groups (n 7 per group). Groups 2 and 4 were subcutaneously treated with Compound 2 at daily dose of 500 nmol/animal. Groups 1 and 3 were treated with saline control. Groups 1 and 2 were sacrificed on day 7 and groups 3 and 4 were sacrificed on day 21.
# Measurements: Lung inflammation and fibrosis were evaluated by the following parameters: 1) cell infiltration to bronchial alveolar lavage (BAL); BAL were collected at the time of sacrifice and cell number was counted by hematocytometer. The infiltrated cells were differentiated by Wright-Giemsa staining. 2) BAL cytokines (IL-6, and IL-1b) by ELISA). 3) Lung histology by H&E staining and Sirius red staining (fibrosis). Histological samples were evaluated blindly.
# Stability of the API = assay type: physicochemical; conditions: for stability of powder: preliminary
# Description: Compound 2 powder underwent preliminary stability testing at 25° C. for 6 months and 40° C. for three months. […] Aqueous solutions of Compound 2 (2 mg/ml) are stable up to 4 weeks at 37° C.
# [3] = test system: murine peritoneal macrophages (PEC); test: Dose-response of M1 and M2 gene expression in PEC (RT PCR); assay type: cell-based, mice
# Description: A third group of experiments was performed to investigate the dose-response effects of TMX, its potency as compared to classical inflammatory signals (e.g. LPS) and the activation of selected transcription factors playing an established role in tolerance, as well as in the induction of M1/M2 polarized inflammatory programs. PECs treated for 4 hours or 20 hours with 100 ng/mlof LPS or increased concentrations of TMX or 1V209 were analyzed by RT PCR for the expression of representative M1 (TNFα, IL-12p40) and M2 (IL-10, TGFβ) genes. […] In this experiment, as compared to 1V209, TMX is a lower inducer of M1 genes expression.
# (§1) Cell Culture and treatments. Peritoneal exudate cells (PEC) were harvested from mice injected with 1 ml of 3% (w/v) thioglycollate medium (Difco, Detroit, Mich.) 4 days prior to isolation. PECs were incubated in RPMI 1640 medium, containing 10% fetal bovine serum, 2 mM glutamine and 100 U/ml of penicillin-streptomycin. The concentration for the different treatments were as follows: LPS (100 ng/ml) (Lipopolysaccharide from Salmonella Abortus Equi S-form, Alexis), CpG (1 μg/ml), Pam3CSK (2 μg/ml), Poly I:C (10 μg/ml), Loxorubine (100 μM), flagellin (100 ng/ml) IL-1β (20 ng/ml), TNF (20 ng/ml), IL-10 (20 ng/ml) (Peprotech), IFNγ (200 U/ml) (Peprotech). To induce TMX tolerance, cells were incubated in the presence of TMX (10 μM or 1 μM) for 20 hrs, washed and maintained in RPMI medium for 2 hrs and then re-challenged with TMX (10 μM) for 4 hrs. To induce TMX-tolerization (T/M) cells were treated with TMX for 20 hrs, washed and then maintained in medium for additional 6 hours, without TMX re-challenge. To induce M1-activation, cells were incubated in medium for 20 hrs, washed, left in medium for 2 hrs and finally stimulated with TMX (10 μM) for 4 hrs. Control cells (M/M) were cultured in medium for the entire period of the experiment. For gene expression analysis, total RNA was extracted from TMX treated and untreated cells with trizol (Invitrogen), according to the manufacturer's instructions. To analyze cytokines and chemokines production supernatants were collected 24 hrs after the second challenge with TMX.
# (§2) Real-Time PCR. Total RNA was purified as previously described. Briefly, reverse transcription from 1 μg of RNA was performed using cDNA Archive kit (Applied Biosystem, NJ, USA). Real time PCR was performed using Power Syber Green PCR Master Mix (Applied Biosystem, NJ, USA) and detected by 7900HT Fast Real-Time System (Applied Biosystem, NJ, USA). Data were processed using the SDS2.2.2 software (Applied Biosystem, NJ, USA). Results were normalized to the expression of the housekeeping gene β-actin and then expressed as folds of upregulation, with respect to the control cell population.
# [4] = test system: murine peritoneal macrophages (PEC); test: Cross-tolerance toward TLR ligands and pro-inflammatory cytokines in PEC (gene expression); assay type: cell-based, mice
# Description: In addition, tolerance is tested also in response to primary cytokines IL-1-beta and TNFalpha. This approach clarifies whether the TLR7 partial agonist compound 2 of Table 2 promotes cross-tolerance of different members of the TLR family, as well as of the IL-1 and TNF receptor systems, which has been regularly reported.
# A second group of experiments was performed to evaluate the capacity of TMX to promote cross tolerance toward several TLR ligands and pro-inflammatory cytokines. PECs maintained in medium or pre-treated for 20 hours with 10 μM or 1 μM of TMX and re-challenged with several TLR agonists or pro-inflammatory cytokines were analyzed for the expression of selected M1 and M2 genes.
# as §1
# as §2, with “Data were processed using the SDS2.2.2 software (Applied Biosystem, NJ, USA).” left out
# [5] = Intravenous acute toxicity in mice; assay type: in vivo; conditions: i.v.
smiles,measurement,setting,value
COCCOc1nc(N)c2nc(O)n(Cc3ccc(C(=O)NCCOCCOCCOCCOCCOCCOCCn4cc(CCC(=O)O)nn4)cc3)c2n1 [Compound 2],AUC in comparison with Compound 3,[1],lower
same,Cmax in comparison with Compound 3,[1],lower
same,clearance in comparison with Compound 3,[1],higher
same,half life in comparison with Compound 3,[1],longer
same,levels of IL-6 and IL-1b cytokines in BAL,[2],under the detection levels of ELISA
same,stability of powder,Stability of the API; 25° C. for 6 months,no degradation or impurity profile changes
same,stability of powder,Stability of the API; 40° C. for three months,no degradation or impurity profile changes
same,time aqueous solutions are stable,"Stability of the API; aqueous solutions 2 mg/ml, 37° C.",up to 4 weeks
same,most potent dose tested for the induction of both M1 and M2 genes,[3]; PEC,30 µM
same,induction of both M1 and M2 gene expression,[3]; PECs treated 4 hours or 20 hours with increased concentrations,dose-dependent induction
same,induction of M1 genes expression as compared to 1V209,"[3]; PECs, 4 or 20 hours",lower inducer
same,M2 genes expression on re-challenge with different TLR agonists,[4]; PECs pre-treated with TMX,triggered the expression of M2 genes
same,M1 genes expression in response to TLR ligands,[4]; PECs tolerized by 20 hours pre-treatment with 10 μM TMX,inability to up-regulate M1 genes expression
same,cross-tolerance,"[4]; TMX 10 microM, exception CXCL10 following re-challenge with CpG, poly I:C, LPS",observed
same,IL-10 expression following re-challenge of TMX-tolerant macrophages with TNF,[4]; TNF 20 ng/ml,still induced
same,dose up to which no toxic clinical signs were produced,[5],up to 1000 mg/kg
